Data as given in patent US8420574B2, “Plant growth enhancement with combinations of PESA and herbicides” (Valent BioSciences Corporation, priority 2009, dated 2013).

Legend:
rice cv. Cheniere [1] = experiment: Pouch assay, PESA salt and herbicide added to the pouch solution; root and shoot length; assay type: in vivo; settings: for Shoot Length / Root Length: 0 ppm PESA salt; for Shoot Length: untreated 3.2; for Root Length: untreated 9.2
Method: Alternatively, PESA salt and herbicides may be added separately to the sterile water in the growth pouch.
(§1) Seeds were placed in germination pouches consisting of germination paper hydrated with sterile water that was an insert in a gas-permeable 16×14 cm plastic pouch (CYG Pouch; Mega International, St. Paul, Minn.). In these examples, in pouch solution evaluation, PESA sodium salt or other active ingredients were added to the sterile water in the pouch. The pouches were arranged in a completely randomized block design in growth racks and placed in 19-liter polycarbonate food storage containers (Rubbermaid Commercial Products, Winchester, Va.). The sealed containers were held in an upright growth cabinet maintained at 25 C with a 12 hour light: 12 hour dark photoperiod. After 6 days, the containers were removed from the growth cabinet, and the lengths of the roots and shoot were measured.

rice cv. Cheniere [2] = experiment: Pouch assay with PESA salt seed treatment; root length; assay type: in vivo; settings: 0 g PESA salt/100 lbs of seed, untreated 9.8
Method: Procedure for Treating Samples of Seed in the Laboratory
Seed was sieved with a screen of mesh size appropriate to remove broken seeds and small trash. Cracked or otherwise damaged seeds were removed. The seed was well mixed, and 50 g samples were weighed into small plastic trays. Seed treatment slurries were made by adding measured amounts of PESA or its salts and other AIs to sufficient water to bring them up to a standard volume, typically 2 ml. A fungicide (Maxim XL; Syngenta Agricultural Products, Greensboro, N.C.), a polymeric binder (CF-Clear; Becker-Underwood, Ames, Iowa), and a colorant (Color Coat Red; Becker-Underwood, Ames, Iowa) were also included in the slurry at label rates. A small aliquot of this slurry was applied to the seed using the Hege 11 coater (Wintersteiger, Salt Lake City, Utah) with a six-inch bowl at a slurry rate of 30 ounces per 100 lbs of seed. The slurry was deposited drop-wise on the spinning disk atomizer using a syringe.
After treatment, each seed sample was placed in plastic trays and dried at a room temperature for 20 to 60 minutes. The samples were then placed in small plastic bags. Samples were spot-checked using a water activity meter to make sure the water activity is below 0.7.
as §1
Rice cv. Chemere was treated with PESA sodium salt prior to growing in the pouch. The treated seeds were then grown in the pouch in a dose-dependent series of trifluralin concentrations (Table 2). […] This confirms that seed treatment with the PESA salt protects or safens rice from the negative effects of trifluralin herbicide on root growth.

## CCCN(CCC)c1c([N+](=O)[O-])cc(C(F)(F)F)cc1[N+](=O)[O-] [Trifluralin, trifluralin, reference compound]
Rice cv. Cheniere [1]; 1 ppm trifluralin
  Shoot Length: 3.7 cm
  Root Length: 9.8 cm
Rice cv. Cheniere [1]; 10 ppm trifluralin
  Shoot Length: 3.3 cm
  Root Length: 8.3 cm
Rice cv. Cheniere [1]; 100 ppm trifluralin
  root length reduced by: 90%
  Shoot Length: 2.2 cm
  Root Length: 0.9 cm
Rice cv. Cheniere [2]; 50 ppm trifluralin
  Root Length: 0.9 cm
Rice cv. Cheniere [2]; 100 ppm trifluralin
  Root Length: 0.1 cm
